Experimental findings from ChEMBL document CHEMBL3259791, “Discovery of (E)-3-((styrylsulfonyl)methyl)pyridine and (E)-2-((styrylsulfonyl)methyl)pyridine derivatives as anticancer agents: synthesis, structure-activity relationships, and biological activities” (J Med Chem, 2014) are described below.

The source made the active and inactive calls. No cut-off for these calls is given here.

For data set [1], the system named is A2780. The data set is described as follows: Antiproliferative activity against human A2780 cells assessed as cell growth inhibition after 72 hrs by MTT assay. Conditions: A2780, 72 h. In kind it is functional.
Data set [2] relates to HCT-116. Put plainly: Antiproliferative activity against human HCT116 cells assessed as cell growth inhibition after 72 hrs by MTT assay. Conditions: HCT-116, 72 h. Type of data set: functional.
Data set [3] concerns MCF7. The data set is described as follows: Antiproliferative activity against human MCF7 cells assessed as cell growth inhibition after 72 hrs by MTT assay. In kind it is functional. Conditions: MCF7, 72 h. In general terms: Formazan colour is commonly taken as a measure of viable cells.
In data set [4] the test system is A2780. Put plainly: Induction of apoptosis in human A2780 cells assessed as caspase-3/7 activation at […] after 24 hrs by using Apo-ONE homogeneous caspase-3/7 kit. Type of data set: functional, cell-based.
Data set [5] has as its system A2780. The data set is described as follows: Reduction in Mcl1 level in human A2780 cells at […] after 24 hrs by Western blot analysis. Type of data set: functional, cell-based. A general note: A western blot detects proteins with antibodies after separation by electrophoresis.
The subject of data set [6] is A2780. Put plainly: Reduction in CDC25C level in human A2780 cells at […] after 24 hrs by Western blot analysis. Type of data set: functional, cell-based.
In data set [7] the test system is WI-38. Put plainly: Induction of apoptosis in human WI38 cells assessed as caspase-3/7 activation up to 1 uM after 24 hrs by using Apo-ONE homogeneous caspase-3/7 kit. Type of data set: functional, cell-based.
The nature of data set [8]: Oral bioavailability (0 to t) in mouse at 10 mg/kg after 24 hrs. In kind it is ADME, organism-based. Conditions: in vivo.
Data set [9] can be described thus: AUC (0 to t) in mouse at 10 mg/kg, po after 24 hrs. In kind it is ADME, organism-based. Details: time < 24 hr, dose 10 mg/kg, route oral. Conditions: plasma.
A short description of data set [10]: Elimination half life in mouse at 10 mg/kg, po after 24 hrs. Details: dose 10 mg/kg, route oral. In kind it is ADME, organism-based. The note with it: in vivo, read-out: beta t1/2 (converted).
Data set [11] in a line: Cmax in mouse at 10 mg/kg, po after 24 hrs. In kind it is ADME, organism-based. Also noted: dose 10 mg/kg, route oral. Conditions: in vivo.

As for `CCOC(=O)CNc1cc(CS(=O)(=O)/C=C/c2c(OC)cc(OC)cc2OC)cnc1OC`, the 50% growth inhibitory concentration (GI50) (usually the concentration at which growth is held to half of that of the control) in data set [1] stood at 409 nM; in data set [2], 517 nM; in data set [3] it was 940 nM.
On the same counts, the results for `COc1cc(OC)c(/C=C/S(=O)(=O)Cc2ccc(OC)c(NC(C)=O)n2)c(OC)c1` are 500 nM, 320 nM and 660 nM.
For the compound `COc1cc(OC)c(/C=C/S(=O)(=O)Cc2ccc(OC)c(NCC(=O)O)c2)c(OC)c1`, in data set [4], the outcome was Active. Besides, the inhibition entry in data set [5] and in data set [6] was “Active” throughout. For the same compound, in data set [7], the outcome was inactive.
For `COc1cc(OC)c(/C=C/S(=O)(=O)Cc2cnc(OC)c(NCC(=O)O)c2)c(OC)c1`, the GI50 in data set [1] was 376 nM; in data set [2], 410 nM.
`COc1cc(OC)c(/C=C/S(=O)(=O)Cc2cnc(OC)c([N+](=O)[O-])c2)c(OC)c1`: the GI50 was determined as 7210 nM in data set [1], 7430 nM in data set [2] and 5220 nM in data set [3].
The matching figures for `COc1cc(OC)c(/C=C/S(=O)(=O)Cc2ccc(OC)c(NCC(=O)O)n2)c(OC)c1`: 253 nM, 329 nM and 545 nM.
On to `COc1cc(OC)c(/C=C/S(=O)(=O)Cc2ccc(OC)c(NCC(=O)[O-])c2)c(OC)c1.[Na+]` [RIGOSERTIB SODIUM], for which the bioavailability (usually the share of a dose that reaches the circulation, judged against a reference dose that is usually intravenous) in data set [8] turned out to be 9%. Moreover, the area under the curve AUC(0-t) – broadly, the area under the concentration-time curve up to a stated or last time point – at 24 h in data set [9] was 1 µM·h. In addition, the half-life in data set [10] is 2.6 h. In addition, in [11], the concentration peaked (Cmax) at 400 nM.
As for `CCOC(=O)CNc1nc(CS(=O)(=O)/C=C/c2c(OC)cc(OC)cc2OC)ccc1OC`, the GI50 came to 6910 nM in [1], 5450 nM in [2] and 5710 nM in [3].
